Reference: PMC11259170, “Small-molecule probe for IBD risk variant GPR65 I231L alters cytokine signaling networks through positive allosteric modulation” (Science Advances, 2024)
Read-outs that look alike come from different tables or passages of the source.

Assays:
hGPR65 = molecular target: T1, hGPR65 (Homo sapiens, UniProt Q8IYL9); experiment: cAMP detection in HeLa expression cell line, hGPR65; assay type: cell-based; details: for Emax: HeLa, read-out: hGPR Max Activity %; for Emax / hGPR Max Activity: relative to 100uM forskolin (100%) and DMSO (0%); for hGPR Max Activity: third pair
T1 construct: expressed in transfected cells; host or cells: HeLa (ATCC CCL-2), lentiviral transduction, pLX317
How it was run: (§1)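 TR-FRET cAMP read-out (Lance Ultra; ex 337 nm, em 620 and 665 nm) after 1 h detection in the dark, following a 30 min RT stimulation of 1500 cells per well in pH 7.2 stimulation buffer with compound supplied as 10 mM DMSO stock. Cells: lentivirally transduced HeLa lines carrying V5-tagged GPCR or GFP, kept under 3 μg/ml puromycin.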

mGPR65 = molecular target: T2, mGPR65 (Mus musculus, UniProt Q61038); experiment: cAMP detection in HeLa expression cell line, mGPR65; assay type: cell-based; details: for mGPR Max Activity: third pair; for mGPR Max Activity / Emax: relative to 100uM forskolin (100%) and DMSO (0%); for Emax: HeLa, read-out: mGPR Max Activity %
T2 construct: expressed in transfected cells; host or cells: HeLa (ATCC CCL-2), lentiviral transduction, pLX317
How it was run: as §1

[1] = system: GFP-expressing HeLa cells; experiment: cAMP detection in HeLa expression cell line, GFP control; assay type: cell-based, human; details: for EC50 / Emax: Homo sapiens, HeLa; for Emax / GFP Max Activity: relative to 100uM forskolin (100%) and DMSO (0%); for Emax: read-out: GFP Max Activity %; for GFP Max Activity: third pair
Experimental: HeLa stable expression cell lines were produced by lentiviral transduction. Briefly, lentiviral plasmids for each GPCR with a C-terminal V5 Tag ([…]) were made in a pLX317 backbone using competent Escherichia coli (New England Biolabs, C3050H). Lenti-X 293 T (Takara, 632810) cells were transfected with the lentiviral plasmids to produce virus. Low-passage HeLa cells (American Type Culture Collection, CCL-2) were then transduced with lentivirus. After 48 hours, HeLa cells were cultured under selection with puromycin (3 μg/ml) and allowed to recover and expand before storing stocks in liquid nitrogen.
cAMP was measured in cells using the Lance Ultra cAMP Kit. HeLa cells were cultured under puromycin (3 μg/ml) selection. One day before the experiment, cells were seeded in T75 flasks and allowed to adhere overnight. On the day of the experiment, cells were washed twice with Dulbecco’s PBS and lifted using prewarmed 1× versene solution (Gibco, 15040066). Cells were counted in HBSS (Gibco, 14025092) and then resuspended in stimulation buffer prepared according to the manufacturer’s instructions and adjusted to pH 7.2 using 1 M sodium hydroxide. Cells were added to the plate at a density of 1500 cells per well in white opaque 384-well assay ready microplates containing 100 nl of 10 mM compound in DMSO. Cells were stimulated for 30 min at RT, then lysed and incubated with detection reagents for 1 hour in the dark at RT. Plates were read on BMG Labtech PHERAstar FSX (excitation, 337 nm; emission, 620 and 665 nm). Data analysis was performed using GraphPad Prism.

[2] = Comment on solubility in SAR table; assay type: physicochemical
Excerpt: Supplement sciadv.adn2339_data_s1_to_s4.zip/sciadv.adn2339_data_s2.xlsx, sheet "SAR cAMP Assay"

[3] = Solubility in phosphate buffer; assay type: physicochemical; details: read-out: Solubility
Lipophilicity (logD) = assay type: physicochemical; details: pH 7.4; pH7.4; read-out: LogD (pH7.4)
[4] = SAR cAMP assay, second EC50/Max pair of hGPR columns, read-out: hGPR EC50
[5] = SAR cAMP assay, third EC50/Max pair of hGPR columns, read-out: hGPR EC50
[6] = SAR cAMP assay, third EC50/Max pair of mGPR columns, read-out: mGPR EC50
[7] = SAR cAMP assay, third EC50/Max pair of GFP control columns
[8] = 1st GFP column pair, NA = no activity
[9] = 2nd GFP column pair, NA = no activity

T1 sequence (Q8IYL9 whole entry): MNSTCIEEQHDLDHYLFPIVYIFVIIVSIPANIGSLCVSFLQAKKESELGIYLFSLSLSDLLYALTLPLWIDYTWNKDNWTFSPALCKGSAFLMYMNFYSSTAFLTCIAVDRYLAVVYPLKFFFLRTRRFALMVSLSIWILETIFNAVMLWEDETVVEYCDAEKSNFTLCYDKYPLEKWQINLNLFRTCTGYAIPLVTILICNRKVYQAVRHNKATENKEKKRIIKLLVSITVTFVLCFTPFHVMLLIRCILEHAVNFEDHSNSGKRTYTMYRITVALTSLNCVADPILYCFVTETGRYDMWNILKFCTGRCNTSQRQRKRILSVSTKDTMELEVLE
T2 sequence (Q61038 whole entry): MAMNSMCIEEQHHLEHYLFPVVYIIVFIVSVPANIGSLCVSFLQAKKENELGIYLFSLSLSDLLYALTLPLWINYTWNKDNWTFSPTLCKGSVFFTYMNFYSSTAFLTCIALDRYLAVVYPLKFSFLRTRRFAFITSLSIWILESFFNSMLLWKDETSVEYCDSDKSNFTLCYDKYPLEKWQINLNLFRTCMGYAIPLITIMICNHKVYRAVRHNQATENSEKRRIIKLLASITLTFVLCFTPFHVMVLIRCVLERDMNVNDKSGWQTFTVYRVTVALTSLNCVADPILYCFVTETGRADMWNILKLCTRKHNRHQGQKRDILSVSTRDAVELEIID

Cc1ccc(NC(=O)c2cnn3c(O)cc(-c4ccc(-c5cccc(C(C)C)c5)cc4)nc23)cc1 [BRD4922]
Emax (hGPR65; first pair): 47.3%
Emax (hGPR65; second pair): 51.9%
EC50 (hGPR65; SAR cAMP assay, first EC50/Max pair of hGPR columns, read-out: hGPR EC50): 3.82 µM
EC50 (hGPR65; [4]): 1.42 µM
EC50 (hGPR65; [5]): 0.688 µM
hGPR Max Activity (hGPR65): 55.72%
EC50 (mGPR65; [6]): 0.9 µM
mGPR Max Activity (mGPR65): 35.02%
EC50 ([1]; SAR cAMP assay, second EC50/Max pair of GFP control columns): 2440 nM
EC50 [1, 7]: 6470 nM
Emax ([1]; second pair): 0.205%
GFP Max Activity [1]: 1.632%
Comments (solubility) [2]: Poor solubility.

Cc1ccc(NC(=O)c2cnn3c(O)cc(-c4ccc(COC(C)C)cc4)nc23)cc1Cl [BRD5079, O=C(NC1=CC=C(C)C(Cl)=C1)C2=C3N(N=C2)C(O)=CC(C4=CC=C(COC(C)C)C=C4)=N3]
activity for hGPR65 (hGPR65): strong activity for hGPR65
activity for hGPR65 among prioritized molecules (hGPR65; 1.56 μM, pH 7.2): highest activity
Emax (hGPR65; 1st hGPR column pair, NA = no activity): 81.1%
Emax (hGPR65; 2nd hGPR column pair, NA = no activity): 82.5%
EC50 (hGPR65; hGPR EC50 (uM), NA = no activity): 0.428 µM
EC50 (hGPR65; hGPR EC50 (uM), pH 7.2, 30 min): 0.348 µM
EC50 (hGPR65; hGPR EC50, NA = no activity): 0.564 µM
EC50 (hGPR65; hGPR EC50, pH 7.2, 30 min): 0.417 µM
cAMP activity, hGPR65 (hGPR65; pH 7.2): at least 40%
activity for mGPR65 among prioritized molecules (mGPR65; 1.56 μM, pH 7.2): highest activity
Emax (mGPR65; 2nd mGPR column pair, NA = no activity): 48.8%
Emax (mGPR65; NA = no activity): 57.5%
EC50 (mGPR65; mGPR EC50 (uM), 2nd mGPR column pair, NA = no activity): 0.276 µM
EC50 (mGPR65; mGPR EC50 (uM), first pair of columns, pH 7.2, 30 min): 0.345 µM
EC50 (mGPR65; mGPR EC50 (uM), second pair of columns, pH 7.2, 30 min): 0.591 µM
EC50 (mGPR65; mGPR EC50 (uM), NA = no activity): 0.604 µM
cAMP activity, mGPR65 (mGPR65; pH 7.2): at least 40%
EC50 [1, 8]: 4310 nM
Emax [1, 8]: 1.78%
EC50 [1, 9]: 1210 nM
Emax [1, 9]: 2.88%
solubility [3]: < 1.56 µM
logD (Lipophilicity (logD)): > 4.23

Cc1ccc(NC(=O)c2cnn3c(O)cc(-c4cccc(-c5ccccc5)c4)nc23)cc1 [BRD8101]
Emax (hGPR65; second pair): 7.53%
EC50 (hGPR65; [4]): 9.64 µM
EC50 (hGPR65; [5]): 13.6 µM
hGPR Max Activity (hGPR65): 28.01%
Emax (mGPR65; second pair): 73.1%
EC50 (mGPR65; SAR cAMP assay, second EC50/Max pair of mGPR columns, read-out: mGPR EC50): 0.566 µM
EC50 (mGPR65; [6]): 0.0897 µM
mGPR Max Activity (mGPR65): 82.45%
EC50 [1, 7]: 3200 nM
GFP Max Activity [1]: 2.825%
Comments (solubility) [2]: Poor solubility.
